{"source": "patent US11523607B2", "about": "“Sperm storage media comprising MHY 1485 for enhancing sperm quality and function” (UNIVERSIDADE DO PORTO, priority 2017, dated 2022)", "format_in_all_cases": "cell-based", "key": {"Human spermatozoa [1]": {"system": "Human spermatozoa", "experiment": "Human spermatozoa viability after storage (eosin-nigrosin staining)", "conditions": "2 μg/mL in Sperm Preparation Medium, 37° C.", "protocol": "(§1) FIG. 1—Human spermatozoa viability after storage during 120 minutes at 37° C. Spermatozoa were stored in Sperm Preparation Medium (ORIGIO, Måløv, Denmark) not supplemented (Control) or supplemented with an mTOR activator (MHY 1485). Spermatozoa were also incubated with an mTOR inhibitor (Rapamycin; Rap) as a negative control. Viability was assessed by the eosin-nigrosin staining method. Results are presented as mean±standard error of the mean (n=12); Significant results (P<0.05) are indicated as *-vs. Control.\n(§2) We evaluated the use of an mTOR activator (MHY 1485) as an additive during sperm storage at 37° C. […] We assessed key sperm quality parameters, namely sperm viability and sperm motility, using standard methods, as described by the guidelines of the World Health Organization, with the supervision of a certified embryologist. We also evaluated the oxidative damages to sperm DNA (DNA fragmentation), proteins (protein carbonylation) and lipids (lipid peroxidation). Sperm DNA fragmentation was assessed using the Halosperm® kit (Halotech DNA SL, Madrid, Spain). Sperm protein carbonylation and lipid peroxidation were evaluated using specific antibodies (ABCAM®, Cambridge, USA) raised against 2,4-dinitrophenol groups and anti-4-hydroxynonenal groups (respectively). […]"}, "Human spermatozoa [2]": {"system": "Human spermatozoa", "experiment": "Human spermatozoa motility after storage", "conditions": "2 μg/mL in Sperm Preparation Medium, 37° C.", "protocol": "as §1, with “2—Human” for “1—Human”, “motility” for “viability”, “control.” for “control. Viability was assessed by the eosin-nigrosin staining method.”\nas §2"}, "Human spermatozoa [3]": {"system": "Human spermatozoa", "experiment": "Human spermatozoa metabolism during storage (glucose consumption, lactate production by 1H-NMR)", "conditions": "2 μg/mL, 37° C.", "protocol": "as §1, with “3—Human” for “1—Human”, “metabolism during” for “viability after”, “for” for “during”, “Sperm glucose consumption and lactate production were” for “Viability was”, “1H nuclear magnetic resonance.” for “the eosin-nigrosin staining method.”\nWe evaluated the use of an mTOR activator (MHY 1485) as an additive during sperm storage at 37° C. We added the mTOR activator (at a concentration of 2 μg/mL) to a commercial sperm storage medium (Sperm Preparation Medium®; Origio, Malay, Denmark) and stored the spermatozoa suspension (2 million spermatozoa per mL) in microtubes (at 37° C. in a 5% CO2 incubator) for up to 120 minutes, evaluating key parameters of quality and the degree of oxidative damages to those cells at regular intervals (0, 30 and 120 minutes). We assessed key sperm quality parameters, namely sperm viability and sperm motility, using standard methods, as described by the guidelines of the World Health Organization, with the supervision of a certified embryologist. We also evaluated the oxidative damages to sperm DNA (DNA fragmentation), proteins (protein carbonylation) and lipids (lipid peroxidation). Sperm DNA fragmentation was assessed using the Halosperm® kit (Halotech DNA SL, Madrid, Spain). Sperm protein carbonylation and lipid peroxidation were evaluated using specific antibodies (ABCAM®, Cambridge, USA) raised against 2,4-dinitrophenol groups and anti-4-hydroxynonenal groups (respectively). The metabolic alterations of spermatozoa were also evaluated by means of the proton magnetic resonance technique (1H-NMR), using a Varian 600 MHz spectrometer equipped with a 3 mm indirect detection probe with z-gradient (Varian, Palo Alto, USA). At the end of the storage, we evaluated the capacitation potential of the spermatozoa, by incubating the cells in a commercial medium (Lifeglobal®, Guilford, USA) and assessing the 3-nitrotyrosine levels using specific antibodies (ABCAM®, Cambridge, USA). An mTOR inhibitor (Rapamycin at a concentration of 0,1 μg/mL) was used as a negative control."}, "Human spermatozoa [4]": {"system": "Human spermatozoa", "experiment": "Human spermatozoa capacitation after storage", "conditions": "2 μg/mL in Sperm Preparation Medium, 37° C.", "protocol": "as §1, with “4—Human” for “1—Human”, “capacitation” for “viability”, “for” for “during”, “Sperm capacitation” for “Viability”, “evaluating sperm phosphotyrosine levels after 180 minutes incubation in Sperm Capacitation Medium (LifeGlobal Europe, Brussels, Belgium).” for “the eosin-nigrosin staining method.”\nas §2"}, "Human spermatozoa [5]": {"system": "Human spermatozoa", "experiment": "Human spermatozoa DNA fragmentation after storage (Halosperm kit)", "conditions": "2 μg/mL, 37° C., 120 minutes storage", "protocol": "as §1, with “5—Human” for “1—Human”, “DNA fragmentation” for “viability”, “for” for “during”, “DNA fragmentation” for “Viability”, “using a Halosperm G2 kit (HALOTECH, Madrid, Spain).” for “by the eosin-nigrosin staining method.”\nas §2"}, "Human spermatozoa [6]": {"system": "Human spermatozoa", "experiment": "Human spermatozoa protein carbonylation after storage (immunoblot)", "conditions": "2 μg/mL, 37° C., 120 minutes storage", "protocol": "(§3) FIG. 6—Human spermatozoa oxidative damage to proteins (carbonylation) and lipids (peroxidation) after storage for 120 minutes at 37° C. Spermatozoa were stored in Sperm Preparation Medium (ORIGIO, Måløv, Denmark) not supplemented (Control) or supplemented with an mTOR activator (MHY 1485). Spermatozoa were also incubated with an mTOR inhibitor (Rapamycin; Rap) as a negative control. Protein carbonylation was assessed by immunobloting a specific @DNP antibody (SigmaAldrich, St. Louis, Mo., USA). Lipid peroxidation was assessed by immunobloting a specific @HNE antibody (Merck Millipore, Temecula, USA). […]\nas §2"}, "Human spermatozoa [7]": {"system": "Human spermatozoa", "experiment": "Human spermatozoa lipid peroxidation after storage (immunoblot)", "conditions": "2 μg/mL, 37° C., 120 minutes storage", "protocol": "as §3, §2"}}, "data": [{"molecule": "O=[N+]([O-])c1ccc(Nc2nc(N3CCOCC3)nc(N3CCOCC3)n2)cc1", "note": "[MHY 1485]", "values": [{"measurement": "percentage of viable sperm", "setting": "Human spermatozoa [1]; 30 minutes storage, vs time zero", "result": "maintained the percentage of viable sperm at similar levels as those of time zero"}, {"measurement": "sperm viability", "setting": "Human spermatozoa [1]; 120 minutes storage", "result": "capable to preserve sperm viability"}, {"measurement": "spermatozoa motility", "setting": "Human spermatozoa [2]; 120 minutes storage", "result": "sustaining a higher motility"}, {"measurement": "spermatozoa motility", "setting": "Human spermatozoa [2]; during storage", "result": "capable to maintain sperm motile"}, {"measurement": "consumption of hexoses", "setting": "Human spermatozoa [3]; 30 minutes storage", "result": "no differences were observed"}, {"measurement": "production of lactate", "setting": "Human spermatozoa [3]; 30 minutes storage", "result": "no differences were observed"}, {"measurement": "glucose consumption", "setting": "Human spermatozoa [3]; 120 minutes storage", "result": "maintained"}, {"measurement": "lactate production", "setting": "Human spermatozoa [3]; 120 minutes storage", "result": "increased"}, {"measurement": "capacitation potential", "setting": "Human spermatozoa [4]; 120 minutes storage", "result": "capable to preserve sperm viability and its capacitation potential"}, {"measurement": "capacitation potential", "setting": "Human spermatozoa [4]; during storage", "result": "sustain its capacitation potential"}, {"measurement": "sperm DNA integrity (DNA fragmentation)", "setting": "Human spermatozoa [5]", "result": "DNA remaining fully intact"}, {"measurement": "sperm protein oxidative damage (protein carbonylation)", "setting": "Human spermatozoa [6]", "result": "not increased"}, {"measurement": "lipid oxidative damage (lipid peroxidation)", "setting": "Human spermatozoa [7]", "result": "not increased"}]}]}
